Measurements reported in patent US12297295B2, “Peptide for treating cancer” (Saint Leo University, priority 2019, dated 2025).
Like-named read-outs stand apart in the source and are kept apart here.

Assays:
[1] = tested on: BT-549 breast cancer cells; settings: two doubling times, CCK-8
Protocol: The effect of Peptides 7M and 7MM on BT-549 breast cancer cells (ATCC #HTB-122) was studied. Pierce Protein Transfection reagent (Thermo Scientific, 89850) was used to deliver peptide to the cultured cells. BT-549 breast cancer cells were transfected with 0.625-20 μM Peptide 7M or 1.25-10 μM Peptide 7MM for 3.5 hrs, incubated in a complete media for a duration of two doubling times (96 hours), and assessed for viability by using a CCK-8 colorimetric assay.
IC50 values were calculated from obtained equations that describe cell viability as a function of peptide concentration.

[2] = target: T1, CMG helicase (Xenopus laevis, UniProt Q91876); experiment: S phase arrested Xenopus egg extracts, chromatin RPA Western blot as readout for DNA helicase activity; assay type: biochemical; settings: 250 μM peptide, 90 min incubation
T1 construct: from tissue; host or cells: S phase arrested Xenopus egg extracts (endogenous proteins on chromatin)
Protocol: The peptide of SEQ ID NO: 1 was synthesized using solid-phase synthesis. The product was purified using HPLC to a purity of about 99%. 250 μM of peptide Ex7 ([…]) (SEQ ID NO: 8), peptide 7N (circularized—KGEVLQMEDDLV) (SEQ ID NO: 9), peptide 7M (ISFQLMLCVLDYF) (SEQ ID NO: 1), or peptide 7C (IKLSPPMLLKEPYK) (SEQ ID NO: 10) were incubated in S phase arrested Xenopus egg extracts. Following a 90 min incubation, chromatin was isolated and probed by Western blotting for RPA protein as a readout for DNA helicase activity. Additionally, peptide 7MN (ISFQLML) (SEQ ID NO: 5), peptide 7MM (QLMLCVL) (SEQ ID NO: 2), and peptide 7MC (LCVLDYF) (SEQ ID NO: 6) were tested.
250 μM of each of peptides 7α (DLVISFQLMLCVLDYFIK) (SEQ ID NO: 14), 7α-ln (LVISFQLMLCVLDYFIK) (SEQ ID NO: 22), 7α-2n (VISFQLMLCVLDYFIK) (SEQ ID NO: 23), 7α-3n (ISFQLMLCVLDYFIK) (SEQ ID NO: 24), 7α-4n (SFQLMLCVLDYFIK) (SEQ ID NO: 25), 7α-5n (FQLMLCVLDYFIK) (SEQ ID NO: 26), 7α-6n (QLMLCVLDYFIK) (SEQ ID NO: 27), 7α-7n (LMLCVLDYFIK) (SEQ ID NO: 28), 7α-17c (DLVISFQLMLCVLDYF) (SEQ ID NO: 29), 7α-16c (DLVISFQLMLCVLDY) (SEQ ID NO: 30), 7α-15c (DVISFQLMLCVLD) (SEQ ID NO: 31), 7α-14c (DVISFQLMLCVL) (SEQ ID NO: 32), 7α-11c (DVISFQLML) (SEQ ID NO: 33) was incubated in S phase arrested Xenopus egg extracts. Following a 90 min incubation, chromatin was isolated and probed by Western blotting for RPA protein as a readout for DNA helicase activity.

[3] = tested on: cancer cells; experiment: Viability of cancer cells, summary statement; assay type: cell-based
[4] = target: T1, CMG helicase; experiment: S phase arrested Xenopus egg extracts, chromatin RPA Western blot as readout for DNA helicase activity; assay type: biochemical; settings: extended from the above and other findings; no test described
[5] = transfected 1.25-10 μM for 3.5 hrs
[6] = conclusion drawn from Examples 39, 41, 42 and FIGS. 42, 44, 45
[7] = transfected 2.5 and 5.0 μM for 3.5 hrs
[8] = extended from the above and other findings, no test described

Row | Substance | inhibition of CMG helicase in vitro (chromatin RPA Western blot) [2] | inhibition of CMG helicase [4] | effect on viability of BT-549 breast cancer cells [1, 5] | effect on viability of cancer cells [3, 6] | effect on viability of BT-549 breast cancer cells [1, 7] | effect on viability of cancer cells [3, 8]
1 | DLVISFALMLCVLDYFIK [7α-Q7A] |  |  | inhibit viability of breast cancer cells |  |  | 
2 | DLVISFQGMLCVLDYFIK [7α-L8G] |  |  | inhibit viability of breast cancer cells |  |  | 
3 | GMLCVL [7MM6-G2] |  | inhibit CMG helicase |  |  |  | decrease viability of cancer cells
4 | GMLCVLD [7MM6-G2-D] |  | inhibit CMG helicase |  |  |  | decrease viability of cancer cells
5 | ISFQLMLCVLDYFIK (listed as Homo sapiens) [7α-3n] | inhibit CMG helicase in vitro |  |  | decrease viability of cancer cells |  | 
6 | LMGCVL [7MM6-G4] |  | inhibit CMG helicase |  |  |  | decrease viability of cancer cells
7 | LMGCVLD [7MM6-G4-D] |  | inhibit CMG helicase |  |  |  | decrease viability of cancer cells
8 | LMLCVL [7MM6] |  | inhibit CMG helicase |  |  |  | decrease viability of cancer cells
9 | LMLCVLD [7MM6-D] |  | inhibit CMG helicase |  |  |  | decrease viability of cancer cells
10 | LVISFQLMLCVLDYFIK (listed as Homo sapiens) [7α-1n] | inhibit CMG helicase in vitro |  |  | decrease viability of cancer cells |  | 
11 | QGMLCVL [7MM-G2] |  | inhibit CMG helicase |  |  |  | decrease viability of cancer cells
12 | SFQLMLCVLDYFIK (listed as Homo sapiens) [7α-4n] | inhibit CMG helicase in vitro |  |  | decrease viability of cancer cells |  | 
13 | VISFQLMLCVLDYFIK (listed as Homo sapiens) [7α-2n] | inhibit CMG helicase in vitro |  |  | decrease viability of cancer cells |  | 

Continued, in another order:

Row | inhibition of CMG helicase in vitro (chromatin RPA Western blot) [2] | inhibition of CMG helicase [4] | Substance | effect on viability of BT-549 breast cancer cells [1, 5] | effect on viability of cancer cells [3, 6] | effect on viability of BT-549 breast cancer cells [1, 7] | effect on viability of cancer cells [3, 8]
14 | inhibit CMG helicase in vitro |  | DLVISFQLMLCVLDY (listed as Homo sapiens) [7α-16c] |  | decrease viability of cancer cells |  | 
15 | inhibit CMG helicase in vitro |  | DLVISFQLMLCVLDYF (listed as Homo sapiens) [7α-17c] |  | decrease viability of cancer cells |  | 
16 | inhibit CMG helicase in vitro |  | DVISFQLML (DLVISFQLML; listed as Homo sapiens) [7α-11c] |  | decrease viability of cancer cells | decrease viability | 
17 | inhibit CMG helicase in vitro |  | DVISFQLMLCVL (DLVISFQLMLCVL; listed as Homo sapiens) [7α-14c] |  | decrease viability of cancer cells | decrease viability | 
18 | inhibit CMG helicase in vitro |  | DVISFQLMLCVLD (DLVISFQLMLCVLD; listed as Homo sapiens) [7α-15c] |  | decrease viability of cancer cells | decrease viability | 
19 | inhibit CMG helicase in vitro |  | FQLMLCVLDYFIK (listed as Homo sapiens) [7α-5n] |  | decrease viability of cancer cells |  | 
20 | inhibit CMG helicase in vitro |  | LMLCVLDYFIK (listed as Homo sapiens) [7α-7n] |  | decrease viability of cancer cells | decrease viability | 
21 | inhibit CMG helicase in vitro |  | QLMLCVLDYFIK (listed as Homo sapiens) [7α-6n] |  | decrease viability of cancer cells | decrease viability | 
